# Results from patent US20050215562A1, “Methods for treating protein aggregation disorders” (priority 2003, published 2005).
# Target: T1, NAC peptide (Homo sapiens, UniProt P37840)
# T1 construct: a 35 amino acid peptide corresponding to residues 61 to 95 of the α-synuclein protein; made in house; host or cells: chemical solid-phase peptide synthesis (Fmoc), not expressed
# Experiment: Circular dichroism (CD) analysis of NAC peptide conformation after incubation with test compounds (fibrillogenesis assay)
# Type: biochemical
# Design: key to CD Result (NAC conformation observed): Random Coil: signifies that the NAC in the sample was observed to have been maintained in its original random coil conformation indicating that the compound coincubated with NAC is active; signifies that the compound was not able to prevent the shift from random coil to β-sheet; β-sheet/β-turn: signifies that the compound was not able to prevent the shift from random coil to β-sheet; Transition: signifies that the NAC was observed to be in the process of converting from random coil to β-sheet indicating that the compound was able to slow down the conformational change and indicates activity
# Conditions: for CD Result (NAC conformation observed): 125 μL of 40 μM NAC peptide with 125 μL of 200 μM test compound, pH 7.4, 37° C., conformations over repeated trials; for Activity (CD): active if it prevents the transition to β-turn/β-sheet in 50% or more of the trials; for Activity: active trials / trials: number of CD trials in which transition to β-turn/β-sheet was prevented, over trials run
# Description: 2 mM Solutions were prepared in TBSA buffer (Tris 0.02 M, NaCl 0.15 M, NaN3 0.005%, pH 7.4) and stored at 4° C. For the assays, compounds were diluted to the desired concentrations in TBSAE buffer (Tris 0.02 M, NaCl 0.15 M, NaN3 0.005%, EDTA 100 μM, pH 7.4) and combined with the NAC peptides.
# Fibrillogenesis assays were employed to identify test compounds that inhibit NAC's ability to assemble into fibers. Following removal of HFIP by evaporation under N2 gas, 20 μM NAC peptide is incubated in the assay buffer (0.02M Tris, 0.15 M NaCl, 0.005% NaN3, 100 uM EDTA) at 37° C. in a Perkin-Elmer HTS 7000 plus microplate reader with shaking for 1 minute every twenty minutes. The presence of fibers can be monitored by three different methods.
# The following assays were set up in clear polystyrene 96 well microplates by combining 125 μL of 40 μM NAC peptide with 125 μL of 200 μM test compound in 0.02M Tris, 0.15 M NaCl, 0.005% NaN3, […]. The microplates were sealed with a plastic sheet and incubated at 37° C. in a Perkin-Elmer HTS 7000 microplate reader with shaking for 1 minute, every 20 minutes. • Thioflavin T Analysis. To perform this assay 5 μM Thioflavin T is added to the NAC assembly conditions described above. The fluorescence is measured at 430 excitation/485 emission every twenty minutes with a Perkin-Elmer HTS microplate reader for the duration of the assay. […] This assay allows for the identification of compounds that can inhibit this increase in fluorescence upon incubation. • Turbidity Analysis. Alternatively, NAC peptide that has been incubated with test compounds in the appropriate assembly conditions can be analyzed by reading the absorbance at 405 nm to follow the turbidity of the solution which is also an indication of the formation of aggregates. • Circular Dichroism (CD) Analysis. […] This assay allows for the identification of compounds that can prevent NAC from adopting a β-sheet/β-turn conformation upon incubation. • At the appropriate time point, during the incubation, the test solutions were transferred to 0.1-cm path length quartz cuvettes and scanned by CD spectroscopy between 190 and 260 nm, with a resolution of 0.1 nm and a bandwidth of 1 nm using a Jasco J-715 spectropolarimeter at 37° C. […] At the time point at which CD scans are performed a 3 μl aliquot is removed from the sample, spotted onto a Formvar grid and then negatively stained with 4% uranyl acetate. The grids were examined for the presence of fibrils and amorphous aggregates using a JOEL 2000 transmission electron microscope at a 25,000 × magnification. This assay can be used to confirm the absence of fibers in the presence of compounds which inhibit NAC assembly by ThT and CD. The final results were obtained by averaging 10 complete sectors.
# For compounds that have been tested multiple times, a compound is classified as active if it prevents the transition to β-turn/β-sheet in 50% or more of the trials.
Structure (SMILES),CD Result (NAC conformation observed),Activity (CD),Activity: active trials / trials
O=S(=O)(O)CC(O)CNC12C[C@H]3C[C@@H](C1)C[C@@H](C2)C3 (stereo partly drawn) [compound 24],Random Coil,Yes,2/2
CC(CCNC12C[C@H]3C[C@@H](C1)C[C@@H](C2)C3)S(=O)(=O)O (stereo partly drawn) [compound 23],Random Coil β-sheet,Yes,½
CC(CC[N+]12CCC(CC1)CC2)S(=O)(=O)O (stereo not drawn) [compound 29],β-turn,No,0/3
O=S(=O)(O)CCCC[N+]12CCC(CC1)CC2 [compound 30],Random Coil β-sheet/β- turn,Yes,2/4
O=S(=O)(O)CCCNC12C[C@H]3C[C@@H](C1)C[C@@H](C2)C3 [compound 26],Transition β-turn,Yes,½
CC(C)(C)NCCCS(C)(=O)=O [compound 19],Random Coil β-turn,Yes,½
CCCC(CO)NCCC(C)S(=O)(=O)O (stereo not drawn) [compound 27],β-sheet/β- turn,No,0/2
O=S(=O)([O-])CC(O)C[N+]12CCC(CC1)CC2 (stereo not drawn) [compound 31],β-sheet/β- turn α-helix,No,⅓
O=S(=O)(O)CCC[N+]12CCC(CC1)CC2 [compound 32],β-sheet/β- turn Random coil,No,¼
O=C[C@@H](Cc1ccccc1)N(O)CCCS(=O)(=O)O [compound 37],β-sheet Transition,Yes,½
O=C[C@H](Cc1ccccc1)NCCCS(=O)(=O)O [compound 36],β-sheet,No,0/1

# Next, values leading:
CD Result (NAC conformation observed),Activity (CD),Activity: active trials / trials,Structure (SMILES)
Random Coil β-sheet/β- turn,Yes,½,CC(C)CCNCC(O)CS(=O)(=O)O (stereo not drawn) [compound 33]
Transition β-turn,No,⅔,O=S(=O)(O)CCCNC(Cc1ccccc1)c1ccccc1 (stereo not drawn) [compound 22]
β-turn,No,0/2,CCCCCCNCCCS(=O)(=O)O [compound 20]
Random Coil,Yes,2/2,O=S(=O)(O)CC(O)CNC1C2CC3CC(C2)CC1C3 (stereo not drawn) [compound 25]
β-turn Transition,No,⅓,O=S(=O)(O)CCCNCCc1c[nH]c2ccccc12 [compound 17]
β-sheet/β- turn,No,0/2,O=C1NCCCC[C@@H]1NCCCS(=O)(=O)O [compound 18]
